Measured values published in patent US10647673B2, “Acetophenone compound, preparation method thereof, and application thereof in fatty liver prevention and treatment” (Nanjing Bioenergy Medicine Science & Technology Co., Ltd., priority 2017, dated 2020).

test system: fatty liver of the SD rats; assay: Pathological sections and grading of fatty liver of SD rats; format: in vivo; details: animal 1; compounds 80 mg/kg, Sim 10 mg/kg, OCA 10 mg/kg
Protocol: 500 g of lard oil was taken, placed in a container, and heated to melt. When the temperature rose to 100° C., it was added with 200 g of cholesterol to dissolve completely, and then further added with 20 g of propylthiouracil. The resulted mixture was stirred well, and added with 500 ml of Tween 80 after dissolution, resulting in an oil phase. At the same time, 600 mL of distilled water and 400 mL of 1,2-propanediol were taken and heated to 60° C. in a water bath, then were added with 40 g of sodium deoxycholate. The resulted mixture was stirred well until realizing complete dissolution, so as to give an aqueous phase. The aqueous phase was added into the oil phase and mixed well to give a lipid emulsion. The lipid emulsion was heated in a water bath of 37° C. before intragastric administration to animals.
An appropriate amount of pharmaceutical was weighed, added with 0.5% CMC-Na, and mixed homogeneously by grinding. There are groups for Compound 01 (80 mg/kg), Compound 02 (80 mg/kg), Compound 03 (80 mg/kg), Compound 04 (80 mg/kg), Compound 05 (80 mg/kg), Compound 06 (80 mg)/kg), Compound 07 (80 mg/kg), Compound 08 (80 mg/kg), Compound 09 (80 mg/kg), Compound 10 (80 mg/kg), Compound 11 (80 mg/kg), Compound 12 (80 mg/kg), Compound 13 (80 mg/kg), Compound 14 (80 mg/kg), Compound 15 (80 mg/kg), Compound 16 (80 mg/kg), Compound 17 (80 mg/kg), Compound 18 (80 mg/kg), Compound 19 (80 mg/kg), Compound 20 (80 mg/kg), Compound 21 (80 mg/kg), and Compound 22 (80 mg/kg).
Male SD rats weighing 180-200 g were fed adaptively for 7 days. Based on body weight, 10 animals were used as control and the remaining animals were intragastrically administered with the lipid emulsion every day, 1 ml/100 g body weight for 14 days. After fasting for 12 hours, 1 mL of blood was collected from the orbits of the animals, and was determined by Hitachi Automatic Biochemical Analyzer 7080 for serum cholesterol (CHO), triglyceride (TG), low density lipoprotein (LDL-C) and high density lipoprotein (HDL-C).
The modeled rats were continued with the intragastric administration of the lipid emulsion. At the same time, the pharmaceutical-administered groups were administrated with a corresponding dose of pharmaceuticals, while the Model group was administrated with an equal volume of solvent. The pharmaceutical-administered groups were administrated with the lipid emulsion in the morning, and with the pharmaceuticals in the afternoon. The animals were measured for the body weight once a week, and were observed. After 14 days of continuous administration, 1 mL of blood was collected from the orbits, and was determined for the contents of triglyceride, cholesterol, low density lipoprotein and high density lipoprotein in blood serum.

Structure (SMILES) | Pathological grading: Steatotic hepatocytes
CC(=O)c1ccc(NC(=O)C(C)(C)Oc2ccc(C3CC3(Cl)Cl)cc2)cc1 (stereo not shown) [Compound 10] | ++ (45-65% of hepatocytes undergoing steatosis)
Cc1ccc(C)c(OCCCC(C)(C)C(=O)NCC(=O)c2ccc(NC(=O)c3cccnc3)cc2)c1 [Compound 11] | + (25-45% of hepatocytes undergoing steatosis)
CC(=O)c1ccc(O)c(CCCOC(=O)C(C)(C)CCCOc2cc(C)ccc2C)c1 [Compound 15] | ++ (45-65% of hepatocytes undergoing steatosis)
CC(=O)c1ccc(O)c(CCCOC(=O)c2cccnc2)c1 [Compound 16] | + (25-45% of hepatocytes undergoing steatosis)
CC(C)(Oc1ccc(Cl)cc1)C(=O)Nc1ccc(C(=O)CNC(=O)c2cccnc2)cc1 [Compound 17] | + (25-45% of hepatocytes undergoing steatosis)
CC(=O)c1ccc(NC(=O)C(C)(C)CCCOc2cc(C)ccc2C)c(O)c1 [Compound 18] | + (25-45% of hepatocytes undergoing steatosis)
CC(=O)c1ccc(NC(=O)C(C)(C)Oc2ccc(Cl)cc2)c(O)c1 [Compound 19] | ++ (45-65% of hepatocytes undergoing steatosis)
CC(=O)c1ccc(NC(=O)c2cccnc2)c(O)c1 [Compound 20] | ++ (45-65% of hepatocytes undergoing steatosis)

same assay, conditions: animal 2; compounds 80 mg/kg, Sim 10 mg/kg, OCA 10 mg/kg

Structure (SMILES) | Pathological grading: Steatotic hepatocytes
CC(=O)c1ccc(NC(=O)C(C)(C)Oc2ccc(C3CC3(Cl)Cl)cc2)cc1 (stereo not shown) [Compound 10] | ++ (45-65% of hepatocytes undergoing steatosis)
Cc1ccc(C)c(OCCCC(C)(C)C(=O)NCC(=O)c2ccc(NC(=O)c3cccnc3)cc2)c1 [Compound 11] | ++ (45-65% of hepatocytes undergoing steatosis)
CC(=O)c1ccc(O)c(CCCOC(=O)C(C)(C)CCCOc2cc(C)ccc2C)c1 [Compound 15] | +++ (65-85% or more of hepatocytes undergoing steatosis)
CC(=O)c1ccc(O)c(CCCOC(=O)c2cccnc2)c1 [Compound 16] | ++ (45-65% of hepatocytes undergoing steatosis)
CC(C)(Oc1ccc(Cl)cc1)C(=O)Nc1ccc(C(=O)CNC(=O)c2cccnc2)cc1 [Compound 17] | ++ (45-65% of hepatocytes undergoing steatosis)
CC(=O)c1ccc(NC(=O)C(C)(C)CCCOc2cc(C)ccc2C)c(O)c1 [Compound 18] | + (25-45% of hepatocytes undergoing steatosis)
CC(=O)c1ccc(NC(=O)C(C)(C)Oc2ccc(Cl)cc2)c(O)c1 [Compound 19] | ++ (45-65% of hepatocytes undergoing steatosis)
CC(=O)c1ccc(NC(=O)c2cccnc2)c(O)c1 [Compound 20] | +++ (65-85% or more of hepatocytes undergoing steatosis)

same assay, conditions: animal 3; compounds 80 mg/kg, Sim 10 mg/kg, OCA 10 mg/kg

Structure (SMILES) | Pathological grading: Steatotic hepatocytes
CC(=O)c1ccc(NC(=O)C(C)(C)Oc2ccc(C3CC3(Cl)Cl)cc2)cc1 (stereo not shown) [Compound 10] | + (25-45% of hepatocytes undergoing steatosis)
Cc1ccc(C)c(OCCCC(C)(C)C(=O)NCC(=O)c2ccc(NC(=O)c3cccnc3)cc2)c1 [Compound 11] | ++ (45-65% of hepatocytes undergoing steatosis)
CC(=O)c1ccc(O)c(CCCOC(=O)C(C)(C)CCCOc2cc(C)ccc2C)c1 [Compound 15] | ++ (45-65% of hepatocytes undergoing steatosis)
CC(=O)c1ccc(O)c(CCCOC(=O)c2cccnc2)c1 [Compound 16] | +++ (65-85% or more of hepatocytes undergoing steatosis)
CC(C)(Oc1ccc(Cl)cc1)C(=O)Nc1ccc(C(=O)CNC(=O)c2cccnc2)cc1 [Compound 17] | ++ (45-65% of hepatocytes undergoing steatosis)
CC(=O)c1ccc(NC(=O)C(C)(C)CCCOc2cc(C)ccc2C)c(O)c1 [Compound 18] | ++ (45-65% of hepatocytes undergoing steatosis)
CC(=O)c1ccc(NC(=O)C(C)(C)Oc2ccc(Cl)cc2)c(O)c1 [Compound 19] | ++ (45-65% of hepatocytes undergoing steatosis)
CC(=O)c1ccc(NC(=O)c2cccnc2)c(O)c1 [Compound 20] | ++ (45-65% of hepatocytes undergoing steatosis)

same assay, conditions: animal 4; compounds 80 mg/kg, Sim 10 mg/kg, OCA 10 mg/kg

Structure (SMILES) | Pathological grading: Steatotic hepatocytes
CC(=O)c1ccc(NC(=O)C(C)(C)Oc2ccc(C3CC3(Cl)Cl)cc2)cc1 (stereo not shown) [Compound 10] | ++ (45-65% of hepatocytes undergoing steatosis)
Cc1ccc(C)c(OCCCC(C)(C)C(=O)NCC(=O)c2ccc(NC(=O)c3cccnc3)cc2)c1 [Compound 11] | ++ (45-65% of hepatocytes undergoing steatosis)
CC(=O)c1ccc(O)c(CCCOC(=O)C(C)(C)CCCOc2cc(C)ccc2C)c1 [Compound 15] | ++ (45-65% of hepatocytes undergoing steatosis)
CC(=O)c1ccc(O)c(CCCOC(=O)c2cccnc2)c1 [Compound 16] | ++ (45-65% of hepatocytes undergoing steatosis)
CC(C)(Oc1ccc(Cl)cc1)C(=O)Nc1ccc(C(=O)CNC(=O)c2cccnc2)cc1 [Compound 17] | ++ (45-65% of hepatocytes undergoing steatosis)
CC(=O)c1ccc(NC(=O)C(C)(C)CCCOc2cc(C)ccc2C)c(O)c1 [Compound 18] | ++ (45-65% of hepatocytes undergoing steatosis)
CC(=O)c1ccc(NC(=O)C(C)(C)Oc2ccc(Cl)cc2)c(O)c1 [Compound 19] | +++ (65-85% or more of hepatocytes undergoing steatosis)
CC(=O)c1ccc(NC(=O)c2cccnc2)c(O)c1 [Compound 20] | ++ (45-65% of hepatocytes undergoing steatosis)

same assay, conditions: animal 5; compounds 80 mg/kg, Sim 10 mg/kg, OCA 10 mg/kg

Structure (SMILES) | Pathological grading: Steatotic hepatocytes
CC(=O)c1ccc(NC(=O)C(C)(C)Oc2ccc(C3CC3(Cl)Cl)cc2)cc1 (stereo not shown) [Compound 10] | ++ (45-65% of hepatocytes undergoing steatosis)
Cc1ccc(C)c(OCCCC(C)(C)C(=O)NCC(=O)c2ccc(NC(=O)c3cccnc3)cc2)c1 [Compound 11] | + (25-45% of hepatocytes undergoing steatosis)
CC(=O)c1ccc(O)c(CCCOC(=O)C(C)(C)CCCOc2cc(C)ccc2C)c1 [Compound 15] | ++ (45-65% of hepatocytes undergoing steatosis)
CC(=O)c1ccc(O)c(CCCOC(=O)c2cccnc2)c1 [Compound 16] | + (25-45% of hepatocytes undergoing steatosis)
CC(C)(Oc1ccc(Cl)cc1)C(=O)Nc1ccc(C(=O)CNC(=O)c2cccnc2)cc1 [Compound 17] | ++ (45-65% of hepatocytes undergoing steatosis)
CC(=O)c1ccc(NC(=O)C(C)(C)CCCOc2cc(C)ccc2C)c(O)c1 [Compound 18] | ++ (45-65% of hepatocytes undergoing steatosis)
CC(=O)c1ccc(NC(=O)C(C)(C)Oc2ccc(Cl)cc2)c(O)c1 [Compound 19] | + (25-45% of hepatocytes undergoing steatosis)
CC(=O)c1ccc(NC(=O)c2cccnc2)c(O)c1 [Compound 20] | ++ (45-65% of hepatocytes undergoing steatosis)
